Consider one compound from patent US20040152747A1, “Thiazole compounds for treatment of neurodegenerative disorders” (Pfizer Inc, priority 2002, published 2004).

The experiment concerns gamma-secretase. Nature of the experiment: gamma-secretase activity in a solubilized membrane preparation (cell-free assay, McLendon et al.). Type of experiment: biochemical. The following applies: read-out: IC50 activity for inhibiting gamma-secretase activity. The procedure: The activity of compounds of the invention in inhibiting gamma-secretase activity was determined in a solubilized membrane preparation generally according to the description provided in McLendon et al. Cell-free assays for γ-secretase activity, The FASEB Journal (Vol. 14, December 2000, pp. 2383-2386).

As to `CCC(NC(=O)Cc1cc(F)cc(F)c1)C(=O)Nc1ncc(-c2ccc(Br)s2)s1` (stereo not shown) [Example 11, N-[5-(5-bromo-thiophen-2-yl)-thiazol-2-yl]-2-[2-(3,5-difluoro-phenyl)-acetylamino]-butyramide], the IC50 (usually the concentration needed to halve the response being measured) was around 5 µM.
